Each structure is given as a SMILES string. Like-named read-outs stand apart in the source and are kept apart here.

In data set [1] the test system is LPS-induced pulmonary inflammation model in rats. In words: LPS-induced pulmonary inflammation model in rats (Method A). Format: in vivo. As to conditions: Rattus norvegicus, inhaled or nasal, dosage of 1 mg/kg, intratracheal dry powder insufflation 2 h prior LPS challenge, BALF 16 h after LPS, in comparison to the placebo group. The procedure: Exposure of rats to aerosolized lipopolysaccharide (LPS) causes a pulmonary mainly neutrophilic inflammation, which can be assessed by bronchoalveolar lavage (BAL). LPS-induced pulmonary inflammation models are robust and are commonly used for the evaluation of test compounds modulating the immediate immune response. Phosphodiesterase-4 inhibitors are administered by intratracheal dry powder insufflation 2 h prior nose-only LPS challenge in rats. The antiinflammatory activity of the phosphodiesterase inhibitors is assessed based on pulmonary total leukocyte and neutrophil counts in the bronchoalveolar lavage fluid 16 h after LPS exposure.
Male Sprague Dawley rats weighing 250-300 g are used. Rats are delivered 1 weak prior to the experiments and have free access to water and food.
The test compound in crystalline and micronized state is blended with lactose for inhalation ad 10 mg/kg (Respitose® SV003, DMV International, Netherlands). Respitose® and test compound are transferred to 12 ml tubes and are blended for 10 min. Dilution series are prepared from the this stock blend.
A device consisting of an Abbocath®-T catheter (18G×51 mm), a one-way stop-cock and a 5 ml syringe is used for test compound insufflation. Weighed test compound blends are directly filled in the stop-cocks. Intubation of the rats is guided by sight and is done under a short time halothane anesthesia.
The administered dose of the blended material is 10 mg/kg. The expected material loss in the device is 25%, therefore the weighted dose used is 12.5 mg/kg. One day before the experiment the rat body weights are documented and the mean body weight is used to calculate the administered blend dose per rat. LPS challenged and unchallenged control animals received drug-free Respitose® as placebo. Test compound blends and Respitose are administered 2 h prior LPS challenge.
Conscious and restrained animals are connected to a nose-only exposure system (CR equipment SA, Tannay, Switzerland) and are exposed to the LPS aerosol for 30 min. The LPS-containing aerosol is generated using a compressed air driven medication nebulizer device (OCTURNO Medizintechnik GmbH, Germany). The LPS solution (E. coli, Serotype 055B5, Art.#L2880, Lot#114K4103, Sigma-Aldrich; 0.15 mg/ml, diluted in 0.1% hydroxylamine/PBS) is continuously delivered by a syringe pump (20 ml/h) to the nebulizer device. The aerosol is dispersed and transported to the exposure tower by admixture of compressed air. All rats except negative controls are exposed to LPS.
Sixteen hours after LPS challenge, animals are sacrificed with Trapanal (thiopental, […], 2 ml/rat, i.p.), the final body weights are determined and BALs are performed. For the BAL the trachea is exposed and cannulated, followed by gently lavaging the lungs three times in situ with 4 ml PBS buffer.
Determination of total leukocyte and neutrophil counts in BALF is performed with an automated leukocyte differentiation system (XT-20001V, Sysmex, Norderstedt, Germany).
Suppression of LPS-induced total cell and neutrophil influx into the lungs is calculated in % using the means of the cell counts of each treatment group in relation to the control groups:
Statistical analysis is performed on the primary cell count data using one-way ANOVA and Dunnett's multiple comparison post test vs. positive control. The Grubbs test is used to detect outliers.

Setting [2] is: Neutrophil, read-out: reduction of neutrophils.
[3] abbreviates: read-out: reduction of the total cell count.

Regarding `COC(=O)c1ccccc1S(=O)(=O)N1CCC(N2N=C(c3ccc(OC)c(OC)c3)C(C)(C)C2=O)CC1` [Compound 2, Methyl 2-({4-[3-(3,4-dimethoxyphenyl)-4,4-dimethyl-5-oxo-4,5-dihydro-1H-pyrazol-1-yl]piperidin-1-yl}sulfonyl)benzoate], the inhibition in vivo at 1 mg/kg in data set [1] (setting [2]) is 15 to 53%; in data set [1] (setting [3]), 22 to 60%.
In the case of `COc1ccc(C2=NN(C3CCN(S(=O)(=O)c4c(C(C)C)cc(C(C)C)cc4C(C)C)CC3)C(=O)C2(C)C)cc1OC` [Compound 9, 5-(3,4-Dimethoxyphenyl)-4,4-dimethyl-2-(1-{[2,4,6-tri(propan-2-yl)phenyl]sulfonyl}piperidin-4-yl)-2,4-dihydro-3H-pyrazol-3-one], the inhibition in vivo at 1 mg/kg in data set [1] (setting [2]) is 15 to 53%; in data set [1] (setting [3]) it was 22 to 60%.
Take `COc1ccc(C2=NN(C3CCN(S(=O)(=O)c4cccc(C)c4)CC3)C(=O)C2(C)C)cc1OC` [Compound 11, 5-(3,4-Dimethoxyphenyl)-4,4-dimethyl-2-{1-[(3-methylphenyl)sulfonyl]piperidin-4-yl}-2,4-dihydro-3H-pyrazol-3-one]: the inhibition in vivo at 1 mg/kg in data set [1] (setting [2]) lay in the range of 15 to 53%; in data set [1] (setting [3]), 22 to 60%.
Consider `COc1ccc(C2=NN(C3CCN(S(=O)(=O)c4ccccc4F)CC3)C(=O)C2(C)C)cc1OC` [Compound 14, 5-(3,4-Dimethoxyphenyl)-2-{1-[(2-fluorophenyl)sulfonyl]piperidin-4-yl}-4,4-dimethyl-2,4-dihydro-3H-pyrazol-3-one], for which the inhibition in vivo at 1 mg/kg in data set [1] (setting [2]) lay within 15 to 53%; in data set [1] (setting [3]), 22 to 60%.
In the case of `COc1ccc(C2=NN(C3CCN(S(=O)(=O)c4ccccc4C(F)(F)F)CC3)C(=O)C2(C)C)cc1OC` [Compound 18, 5-(3,4-Dimethoxyphenyl)-4,4-dimethyl-2-(1-{[2-(trifluoromethyl)phenyl]sulfonyl}piperidin-4-yl)-2,4-dihydro-3H-pyrazol-3-one], the inhibition in vivo at 1 mg/kg in data set [1] (setting [2]) was 15 to 53%; in data set [1] (setting [3]) it was 22 to 60%.
Compound `COc1ccc(C2=NN(C3CCN(S(=O)(=O)c4cccc(C(=O)O)c4)CC3)C(=O)C2(C)C)cc1OC` [Compound 25, 3-({4-[3-(3,4-Dimethoxyphenyl)-4,4-dimethyl-5-oxo-4,5-dihydro-1H-pyrazol-1-yl]piperidin-1-yl}sulfonyl)benzoic acid] returned a melting point of 244 °C.
In turn, `COC(=O)c1cccc(S(=O)(=O)N2CCC(N3N=C(c4ccc(OC)c(OC)c4)C(C)(C)C3=O)CC2)c1` [Compound 26, Methyl 3-({4-[3-(3,4-dimethoxyphenyl)-4,4-dimethyl-5-oxo-4,5-dihydro-1H-pyrazol-1-yl]piperidin-1-yl}sulfonyl)benzoate] displayed a melting point of 214 °C.
Still for that read-out and setting: with `COc1cc(C2=NN(C3CCN(S(=O)(=O)c4cccc(C)c4)CC3)C(=O)C2(C)C)cc2c1OC(C)(C)C2` [Compound 32, 5-(7-Methoxy-2,2-dimethyl-2,3-dihydro-1-benzofuran-5-yl)-4,4-dimethyl-2-{1-[(3-methylphenyl)sulfonyl]piperidin-4-yl}-2,4-dihydro-3H-pyrazol-3-one] the figure was 183 °C; with `COc1ccc(C2=NN(C3CCN(C(=O)c4cc5ccccc5[nH]4)CC3)C(=O)C2(C)C)cc1OC` [Compound 61, 5-(3,4-Dimethoxyphenyl)-2-[1-(1H-indol-2-ylcarbonyl)piperidin-4-yl]-4,4-dimethyl-2,4-dihydro-3H-pyrazol-3-one], 265 °C.
`COc1cccc(C(=O)N2CCC(N3N=C(c4ccc(OC)c(OC)c4)C(C)(C)C3=O)CC2)c1` [Compound 65, 5-(3,4-Dimethoxyphenyl)-2-{1-[(3-methoxyphenyl)carbonyl]piperidin-4-yl}-4,4-dimethyl-2,4-dihydro-3H-pyrazol-3-one]: the inhibition in vivo at 1 mg/kg was 15 to 53% in data set [1] (setting [2]) and 22 to 60% in data set [1] (setting [3]).
For `COc1ccc(C2=NN(C3CCN(C(=O)c4cccc5ccccc45)CC3)C(=O)C2(C)C)cc1OC` [Compound 68, 5-(3,4-Dimethoxyphenyl)-4,4-dimethyl-2-[1-(naphthalen-1-ylcarbonyl)piperidin-4-yl]-2,4-dihydro-3H-pyrazol-3-one] the same measures were 15 to 53% and 22 to 60%.
For `COc1ccc(C2=NN(C3CCN(C(=O)c4cccc(Cl)c4)CC3)C(=O)C2(C)C)cc1OC` [Compound 69, 2-{1-[(3-Chlorophenyl)carbonyl]piperidin-4-yl}-5-(3,4-dimethoxyphenyl)-4,4-dimethyl-2,4-dihydro-3H-pyrazol-3-one] the same measures were 15 to 53% and 22 to 60%.
`CCOc1cccc(C(=O)N2CCC(N3N=C(c4ccc(OC)c(OC)c4)C(C)(C)C3=O)CC2)c1` [Compound 70, 5-(3,4-Dimethoxyphenyl)-2-{1-[(3-ethoxyphenyl)carbonyl]piperidin-4-yl}-4,4-dimethyl-2,4-dihydro-3H-pyrazol-3-one] returned a melting point of 154 to 156 °C. Besides, in data set [1] (setting [2]), the inhibition in vivo at 1 mg/kg was in the range of 15 to 53%. In data set [1] (setting [3]), the inhibition in vivo at 1 mg/kg lay in the range of 22 to 60%.
For `COc1ccc(C2=NN(C3CCN(C(=O)c4ccccc4Br)CC3)C(=O)C2(C)C)cc1OC` [Compound 72, 2-{1-[(2-Bromophenyl)carbonyl]piperidin-4-yl}-5-(3,4-dimethoxyphenyl)-4,4-dimethyl-2,4-dihydro-3H-pyrazol-3-one], the results for the inhibition in vivo at 1 mg/kg in data set [1] (setting [2]) and in data set [1] (setting [3]) were 15 to 53% and 22 to 60%, respectively.
As to `COc1ccc(C2=NN(C3CCN(C(=O)c4cc(OCc5ccccc5)ccc4C)CC3)C(=O)C2(C)C)cc1OC` [Compound 84, 2-(1-{[5-(Benzyloxy)-2-methylphenyl]carbonyl}piperidin-4-yl)-5-(3,4-dimethoxyphenyl)-4,4-dimethyl-2,4-dihydro-3H-pyrazol-3-one], the figures for the inhibition in vivo at 1 mg/kg in data set [1] (setting [2]) and in data set [1] (setting [3]) were 15 to 53% and 22 to 60%, respectively.
As for `COc1ccc(C2=NN(C3CCN(C(=O)c4cc(O)ccc4C)CC3)C(=O)C2(C)C)cc1OC` [Compound 85, 5-(3,4-Dimethoxyphenyl)-2-{1-[(5-hydroxy-2-methylphenyl)carbonyl]piperidin-4-yl}-4,4-dimethyl-2,4-dihydro-3H-pyrazol-3-one], the melting point lay in the range of 214 to 215 °C. For the same compound, the inhibition in vivo at 1 mg/kg in data set [1] (setting [2]) is 15 to 53%. In addition, in data set [1] (setting [3]), the inhibition in vivo at 1 mg/kg fell in the range of 22 to 60%.
As for `COc1ccc(C2=NN(C3CCN(C(=O)c4cc(O)ccc4F)CC3)C(=O)C2(C)C)cc1OC` [Compound 90, 5-(3,4-Dimethoxyphenyl)-2-{1-[(2-fluoro-5-hydroxyphenyl)carbonyl]piperidin-4-yl}-4,4-dimethyl-2,4-dihydro-3H-pyrazol-3-one], the inhibition in vivo at 1 mg/kg in data set [1] (setting [2]) was 15 to 53%; in data set [1] (setting [3]), 22 to 60%.
With `COc1ccc(C2=NN(C3CCN(C(=O)c4ccccc4O)CC3)C(=O)C2(C)C)cc1OC` [Compound 94, 5-(3,4-Dimethoxyphenyl)-2-{1-[(2-hydroxyphenyl)carbonyl]piperidin-4-yl}-4,4-dimethyl-2,4-dihydro-3H-pyrazol-3-one], the melting point lay within 212 to 213 °C. The inhibition in vivo at 1 mg/kg in data set [1] (setting [2]) was in the range of 15 to 53%. Moreover, the inhibition in vivo at 1 mg/kg in data set [1] (setting [3]) is 22 to 60%.
Taken in the same sequence, the figures for `COc1ccc(C2=NN(C3CCN(C(=O)c4ccccc4OC4CCCC4)CC3)C(=O)C2(C)C)cc1OC` [Compound 96, 2-(1-{[2-(Cyclopentyloxy)phenyl]carbonyl}piperidin-4-yl)-5-(3,4-dimethoxyphenyl)-4,4-dimethyl-2,4-dihydro-3H-pyrazol-3-one] were 176 °C, 15 to 53% and 22 to 60%.
On to `COc1ccc(C2=NN(C3CCN(C(=O)c4ccccc4OCC(N)=O)CC3)C(=O)C2(C)C)cc1OC` [Compound 97, 2-[2-({4-[3-(3,4-Dimethoxyphenyl)-4,4-dimethyl-5-oxo-4,5-dihydro-1H-pyrazol-1-yl]piperidin-1-yl}carbonyl)phenoxy]acetamide], for which the inhibition in vivo at 1 mg/kg fell in the range of 15 to 53% in data set [1] (setting [2]) and 22 to 60% in data set [1] (setting [3]).
